Measurements published in PubChem BioAssay AID1963825 (Molecular Pharmacology Branch, DTP, NCI, 2024).

Assay: Anticancer human tumor 997537-175-T-J1-PDC patient-derived colon adenocarcinoma cell line growth inhibition [POLQ]
Settings: 997537-175-T-J1-PDC complex spheroid viability, combination with POLQ inhibitors; for IC50: curve of first compound; for viability, T/C: stronger effect = lower value; active means viability on the fitted dose curve at most 10% of control; inactive means the rest
Summary of the method: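 PDC + HUVEC + MSC complex spheroids; POLQ inhibitors ± partner drugs; top conc. at/near clinical Cmax, else 10 microM (SN-38 1 microM), half-log dilutions; 37 degrees C, 5% CO2.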

[1] = second compound 0.0316 µM, first compound 0.0316 µM
[2] = second compound 0.0316 µM, first compound 0.1 µM
[3] = second compound 0.0316 µM, first compound 0.316 µM
[4] = second compound 0.0316 µM, first compound 1 µM
[5] = second compound 0.1 µM, first compound 0.0316 µM
[6] = second compound 0.1 µM, first compound 0.1 µM
[7] = second compound 0.1 µM, first compound 0.316 µM
[8] = second compound 0.1 µM, first compound 1 µM
[9] = second compound 0.316 µM, first compound 0.0316 µM
[10] = second compound 0.316 µM, first compound 0.1 µM
[11] = second compound 0.316 µM, first compound 0.316 µM
[12] = second compound 0.316 µM, first compound 1 µM
[13] = second compound 1 µM, first compound 0.0316 µM
[14] = second compound 1 µM, first compound 0.1 µM
[15] = second compound 1 µM, first compound 0.316 µM
[16] = second compound 1 µM, first compound 1 µM
[17] = second compound 3.16 µM, first compound 0.0316 µM
[18] = second compound 3.16 µM, first compound 0.1 µM
[19] = second compound 3.16 µM, first compound 0.316 µM
[20] = second compound 3.16 µM, first compound 1 µM
[21] = second compound 10 µM, first compound 0.0316 µM
[22] = second compound 10 µM, first compound 0.1 µM
[23] = second compound 10 µM, first compound 0.316 µM
[24] = second compound 10 µM, first compound 1 µM
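Further: luminescence signal used as a surrogate for viable cells; spheroids exposed to drugs for seven days before readout.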

CCCS(=O)(=O)Nc1ccc(F)c(C(=O)c2c[nH]c3ncc(-c4ccc(Cl)cc4)cc23)c1F + Nc1ccc(C#CCN(C(=O)Cc2ncc(C(F)(F)F)cc2C(F)(F)F)c2ccc(F)cc2)nn1
6000 nM: IC50 (second compound 3.16 µM)
5970 nM: IC50 (second compound 0.316 µM)
5250 nM: IC50 (second compound 1 µM)
6760 nM: IC50 (second compound 10 µM)
inactive: viability, T/C [1] 81.8% | viability, T/C [2] 88.9% | viability, T/C [3] 80.7% | viability, T/C [4] 70.3% | viability, T/C (second compound 0.0316 µM, first compound 3.16 µM) 74.2% | viability, T/C (second compound 0.0316 µM, first compound 10 µM) 27.2% | viability, T/C [5] 101% | viability, T/C [6] 86.5% | viability, T/C [7] 80.9% | viability, T/C [8] 71.3% | viability, T/C (second compound 0.1 µM, first compound 3.16 µM) 82.8% | viability, T/C (second compound 0.1 µM, first compound 10 µM) 37.9% | viability, T/C [9] 90.3% | viability, T/C [10] 88.3% | viability, T/C [11] 78.4% | viability, T/C [12] 71.9% | viability, T/C (second compound 0.316 µM, first compound 3.16 µM) 79.3% | viability, T/C (second compound 0.316 µM, first compound 10 µM) 26.4% | viability, T/C [13] 84.9% | viability, T/C [14] 96.4% | viability, T/C [15] 84.2% | viability, T/C [16] 86.4% | viability, T/C (second compound 1 µM, first compound 3.16 µM) 66.8% | viability, T/C (second compound 1 µM, first compound 10 µM) 28.5% | viability, T/C [17] 85.5% | viability, T/C [18] 89.3% | viability, T/C [19] 89.5% | viability, T/C [20] 79.3% | viability, T/C (second compound 3.16 µM, first compound 3.16 µM) 73.1% | viability, T/C (second compound 3.16 µM, first compound 10 µM) 32.6% | viability, T/C [21] 104% | viability, T/C [22] 83.5% | viability, T/C [23] 94% | viability, T/C [24] 77.5% | viability, T/C (second compound 10 µM, first compound 3.16 µM) 71.4% | viability, T/C (second compound 10 µM, first compound 10 µM) 39.9%
7310 nM: IC50 (second compound 0.1 µM)
5510 nM: IC50 (second compound 0.0316 µM)

COc1cccc(OCCCN)c1-c1cc(Nc2cnc(C#N)cn2)n[nH]1 + Nc1ccc(C#CCN(C(=O)Cc2ncc(C(F)(F)F)cc2C(F)(F)F)c2ccc(F)cc2)nn1
21.3 nM: IC50 (second compound 1 µM)
48.8 nM: IC50 (second compound 3.16 µM)
72 nM: IC50 (second compound 0.1 µM)
20.9 nM: IC50 (second compound 10 µM)
inactive: viability, T/C (second compound 0.0316 µM, first compound 0.00316 µM) 100% | viability, T/C (second compound 0.0316 µM, first compound 0.01 µM) 90.2% | viability, T/C [1] 70.5% | viability, T/C [2] 42.3% | viability, T/C [3] 44% | viability, T/C [4] 17.7% | viability, T/C (second compound 0.1 µM, first compound 0.00316 µM) 89.1% | viability, T/C (second compound 0.1 µM, first compound 0.01 µM) 96.8% | viability, T/C [5] 70.5% | viability, T/C [6] 43% | viability, T/C [7] 22.2% | viability, T/C [8] 23.2% | viability, T/C (second compound 0.316 µM, first compound 0.00316 µM) 103% | viability, T/C (second compound 0.316 µM, first compound 0.01 µM) 89.5% | viability, T/C [9] 61.4% | viability, T/C [10] 40.5% | viability, T/C [11] 18% | viability, T/C [12] 41.9% | viability, T/C (second compound 1 µM, first compound 0.00316 µM) 89.8% | viability, T/C (second compound 1 µM, first compound 0.01 µM) 61.1% | viability, T/C [13] 50.3% | viability, T/C [14] 21.8% | viability, T/C [15] 40.6% | viability, T/C [16] 36.2% | viability, T/C (second compound 3.16 µM, first compound 0.00316 µM) 88.4% | viability, T/C (second compound 3.16 µM, first compound 0.01 µM) 90.8% | viability, T/C [17] 65.8% | viability, T/C [18] 24.2% | viability, T/C [19] 20.8% | viability, T/C [20] 21.1% | viability, T/C (second compound 10 µM, first compound 0.00316 µM) 84% | viability, T/C (second compound 10 µM, first compound 0.01 µM) 85.1% | viability, T/C [21] 30.4% | viability, T/C [22] 24.9% | viability, T/C [23] 34.1% | viability, T/C [24] 20.5%
110 nM: IC50 (second compound 0.0316 µM)
54.4 nM: IC50 (second compound 0.316 µM)
